The source of these data is patent US20230131903A1, “PESTICIDALLY ACTIVE FUSED BICYCLIC HETEROAROMATIC COMPOUNDS” (SYNGENTA CROP PROTECTION AG, priority 2020, published 2023).

Common to all, as to assay type: in vivo
The test system of experiment [1] is Euschistus heros (Neotropical Brown Stink Bug). The experiment is described as follows: Example B2: Euschistus heros (neotropical brown stink bug), soybean leaves sprayed, N2 nymphs. The settings on record: 120 h, application rate of 200 ppm, 5 days after infestation, in comparison to untreated samples, read-out: control in at least one of the two categories (mortality or growth inhibition). As for the experimental part:
Example B2: Euschistus heros (Neotropical Brown Stink Bug)
Soybean leaves on agar in 24-well microtiter plates were sprayed with aqueous test solutions prepared from 10′000 ppm DMSO stock solutions. After drying the leaves were infested with N2 nymphs. The samples were assessed for mortality and growth inhibition in comparison to untreated samples 5 days after infestation.
(§1) The following compounds gave an effect of at least 80% control in at least one of the two categories (mortality or growth inhibition) at an application rate of 200 ppm

In experiment [2] the test system is Spodoptera littoralis (Egyptian Cotton Leaf Worm). Put plainly: Example B5: Spodoptera littoralis (Egyptian cotton leaf worm), cotton leaf discs sprayed, L1 larvae. As to conditions: foliar, 72 h, application rate of 200 ppm, 3 days after infestation, in comparison to untreated samples, read-out: control in at least one of the three categories (mortality, anti-feedant effect, or growth inhibition). Here is the method:
Example B5: Spodoptera littoralis (Egyptian Cotton Leaf Worm)
Cotton leaf discs were placed onto agar in 24-well microtiter plates and sprayed with aqueous test solutions prepared from 10′000 ppm DMSO stock solutions. After drying the leaf discs were infested with five L1 larvae. The samples were assessed for mortality, anti-feeding effect, and growth inhibition in comparison to untreated samples 3 days after infestation. Control of Spodoptera littoralis by a test sample is given when at least one of the categories mortality, anti-feedant effect, and growth inhibition is higher than the untreated sample.

Experiment [3] has as its system Diabrotica Balteata (Corn Root Worm). The experiment is described as follows: Example B1: Diabrotica balteata (corn root worm), maize sprouts sprayed, L2 larvae. The settings on record: 96 h, application rate of 200 ppm, 4 days after infestation, in comparison to untreated samples, read-out: control in at least one of the two categories (mortality or growth inhibition). As for the experimental part: Example B1: Diabrotica Balteata (Corn Root Worm)
Maize sprouts placed onto an agar layer in 24-well microtiter plates were treated with aqueous test solutions prepared from 10′000 ppm DMSO stock solutions by spraying. After drying, the plates were infested with L2 larvae (6 to 10 per well). The samples were assessed for mortality and growth inhibition in comparison to untreated samples 4 days after infestation.
as §1

Experiment [4] concerns Plutella xylostella (Diamond Back Moth). Put plainly: Example B4: Plutella xylostella (diamond back moth), artificial diet, eggs. As to conditions: 192 h, application rate of 200 ppm, 8 days after infestation, in comparison to untreated samples, read-out: control in at least one of the two categories (mortality or growth inhibition). As for the experimental part: Example B4: Plutella xylostella (Diamond Back Moth)
24-well microtiter plates with artificial diet were treated with aqueous test solutions prepared from 10′000 ppm DMSO stock solutions by pipetting. After drying, Plutella eggs were pipetted through a plastic stencil onto a gel blotting paper and the plate was closed with it. The samples were assessed for mortality and growth inhibition in comparison to untreated samples 8 days after infestation.
as §1

The subject of experiment [5] is Chilo suppressalis (Striped Rice Stemborer). The experiment is described as follows: Example B3: Chilo suppressalis (striped rice stemborer), artificial diet, L2 larvae. As to conditions: 144 h, application rate of 200 ppm, 6 days after infestation, in comparison to untreated samples, read-out: control in at least one of the three categories (mortality, anti-feedant effect, or growth inhibition). As for the experimental part:
Example B3: Chilo suppressalis (Striped Rice Stemborer)
24-well microtiter plates with artificial diet were treated with aqueous test solutions prepared from 10′000 ppm DMSO stock solutions by pipetting. After drying, the plates were infested with L2 larvae (6-8 per well). The samples were assessed for mortality, anti-feeding effect, and growth inhibition in comparison to untreated samples 6 days after infestation. Control of Chilo suppressalis by a test sample is given when at least one of the categories mortality, anti-feedant effect, and growth inhibition is higher than the untreated sample.

The structures appear in SMILES notation.

`CC(c1ncnn1-c1ncccn1)N(C)c1nc(=O)n(CC(F)(F)F)c2ccc(C(F)(F)F)cc12` (stereo not shown) [P12, 4-[methyl-[1-(2-pyrimidin-2-yl-1,2,4-triazol-3-yl)ethyl]amino]-1-(2,2,2-trifluoroethyl)-6-(trifluoromethyl) quinazolin-2-one]: the percent control (mortality or growth inhibition) at 200 ppm in experiment [1] is at least 80%.
Regarding `CC(Nc1nc(=O)n(C)c2c(C(F)(F)F)cc(Br)cc12)c1ncnn1-c1ncccn1` (stereo not shown) [P5, 6-bromo-1-methyl-4-[1-(2-pyrimidin-2-yl-1,2,4-triazol-3-yl)ethylamino]-8-(trifluoromethyl)quinazolin-2-one], the percent control (mortality or growth inhibition) at 200 ppm in experiment [1], in experiment [3] and in experiment [4] was at least 80% throughout. The percent control (mortality, anti-feedant effect or growth inhibition) at 200 ppm in experiment [2] and in experiment [5] was at least 80% each time.
Regarding `CC(c1ncnn1-c1ncccn1)N(C)c1nc(=O)n(C)c2c(C(F)(F)F)cc(Br)cc12` (stereo not shown) [P6, 6-bromo-1-methyl-4-[methyl-[1-(2-pyrimidin-2-yl-1,2,4-triazol-3-yl)ethyl]amino]-8-E (trifluoromethyl)quinazolin-2-one], the percent control (mortality or growth inhibition) at 200 ppm in experiment [1] and in experiment [3] was at least 80% in each case.
With `CC(Nc1nc(=O)[nH]c2c(Br)cc(C(F)(F)F)cc12)c1ncnn1-c1ncccn1` (stereo not shown) [P2], the percent control (mortality or growth inhibition) at 200 ppm in experiment [1], in experiment [3] and in experiment [4] was at least 80% each time. The percent control (mortality, anti-feedant effect or growth inhibition) at 200 ppm in experiment [5] was at least 80%.
In the case of `CC(Nc1cc(=O)[nH]c2c(Cl)cc(C(F)(F)F)cc12)c1nccnc1-c1ncccn1` (stereo not shown) [P8, 8-chloro-4-[1-(3-pyrimidin-2-ylpyrazin-2-yl)ethylamino]-6-(trifluoromethyl)-1H-quinolin-2-one], the percent control (mortality or growth inhibition) at 200 ppm in experiment [3] and in experiment [4] was at least 80% throughout.
On to `CC(c1ncnn1-c1ncccn1)N(CC1CC1)c1nc(=O)[nH]c2c(Br)cc(C(F)(F)F)cc12` (stereo not shown) [P3, 8-bromo-4-[cyclopropylmethyl-[1-(2-pyrimidin-2-yl-1,2,4-triazol-3-yl)ethyl]amino]-6-(trifluoromethyl)-1H-quinazolin-2-one], for which the percent control (mortality or growth inhibition) at 200 ppm in experiment [1], in experiment [3] and in experiment [4] was at least 80% in each case.
Consider `CC(c1ncnn1-c1ncccn1)N(C)c1nc(=O)n(C)c2c(Cl)cc(C(F)(F)F)cc12` (stereo not shown) [P10, 8-chloro-1-methyl-4-[methyl-[1-(2-pyrimidin-2-yl-1,2,4-triazol-3-yl)ethyl]amino]-6-(trifluoromethyl) quinazolin-2-one], for which the percent control (mortality or growth inhibition) at 200 ppm in experiment [1] was at least 80%.
In the case of `CC(c1ncnn1-c1ncccn1)N(CC1CC1)c1nc(=O)[nH]c2c(Cl)cc(C(F)(F)F)cc12` (stereo not shown) [P1, 8-chloro-4-[cyclopropylmethyl-[1-(2-pyrimidin-2-yl-1,2,4-triazol-3-yl)ethyl]amino]-6-(trifluoromethyl)-1H-quinazolin-2-one], the percent control (mortality or growth inhibition) at 200 ppm in experiment [1], in experiment [3] and in experiment [4] was at least 80% each time.
In the case of `CC(Nc1nc(=O)[nH]c2c(Cl)cc(C(F)(F)F)cc12)c1ncnn1-c1ncccn1` (stereo not shown) [P4, 8-chloro-4-[1-(2-pyrimidin-2-yl-1,2,4-triazol-3-yl)ethylamino]-6-(trifluoromethyl)-1H-quinazolin-2-one], the percent control (mortality or growth inhibition) at 200 ppm in experiment [1] and in experiment [4] was at least 80% throughout. Moreover, the percent control (mortality, anti-feedant effect or growth inhibition) at 200 ppm in experiment [2] and in experiment [5] was at least 80% each time.
Turning to `CC(Nc1nc(=O)n(C)c2c(Cl)cc(C(F)(F)F)cc12)c1ncnn1-c1ncccn1` (stereo not shown) [P7, 8-chloro-1-methyl-4-[1-(2-pyrimidin-2-yl-1,2,4-triazol-3-yl)ethylamino]-6-(trifluoromethyl) quinazolin-2-one], the percent control (mortality or growth inhibition) at 200 ppm in experiment [1] and in experiment [4] was at least 80% each time. Moreover, the percent control (mortality, anti-feedant effect or growth inhibition) at 200 ppm in experiment [5] is at least 80%.
